Results reported in patent US4378360A, “6-{3-[4-(Substituted benzyl)-1-piperazinyl]propyloxy}-4,9-dihydro-4,9-dioxo-1H-naphtho[2,3-d-]- v” (Beecham Group Limited, priority 1980, dated 1983).
Where “and” joins values, the source holds several entries; their conditions need not be identical. Identical values can stand only once.

Key:
[1] = molecular target: T1, histamine on isolated guinea pig ileum (Cavia porcellus, UniProt P31389); experiment: Antihistamine activity (in vitro): antagonism of the spasmogenic effects of histamine on isolated guinea pig ileum; conditions: Tyrode solution, 30° C., antagonist 5-640 ng/ml, several assays per compound
T1 construct: strips of terminal guinea pig ileum suspended in a 4 ml capacity organ bath; from tissue; host or cells: terminal ileum strips of guinea pig (Dunkin Hartley male white guinea pigs)
T1 sequence (P31389 whole entry): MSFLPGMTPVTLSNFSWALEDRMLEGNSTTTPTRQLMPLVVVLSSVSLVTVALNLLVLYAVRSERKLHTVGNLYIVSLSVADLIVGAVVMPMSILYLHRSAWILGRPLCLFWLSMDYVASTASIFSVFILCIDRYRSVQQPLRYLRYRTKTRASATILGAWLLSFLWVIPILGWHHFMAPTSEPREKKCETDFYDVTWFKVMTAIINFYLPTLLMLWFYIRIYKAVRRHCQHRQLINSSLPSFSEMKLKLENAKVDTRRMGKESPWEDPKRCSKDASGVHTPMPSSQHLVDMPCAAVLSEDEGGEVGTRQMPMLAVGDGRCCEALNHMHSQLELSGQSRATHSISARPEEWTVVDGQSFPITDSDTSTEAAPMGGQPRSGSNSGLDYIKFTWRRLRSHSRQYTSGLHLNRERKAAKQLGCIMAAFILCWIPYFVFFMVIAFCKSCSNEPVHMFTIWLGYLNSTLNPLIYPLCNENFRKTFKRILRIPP
Procedure: (b) antagonise the spasmogenic effects of histamine on isolated guinea pig ileum.
(§1) Charles River Sprague Dawley male rats of 225-275 g and Dunkin Hartley male white guinea pigs of 250-300 g were used.
The anti-histamine activity of these compounds were measured in terms of pA2 values on guinea pig ileum using the method described by Arunlakshana, O. and Schild, H. O. (Brit J Pharm, 14, 1959, 48).
The pA2 is defined as the negative logarithm of the molar concentration of antagonist that will reduce the response of a double dose of agonist to that of a single dose.
Assays were carried out using strips of terminal guinea pig ileum suspended in a 4 ml capacity organ bath. The ileum was immersed in aerated Tyrode solution at a temperature of 30° C. and a tension of 1 gm was applied to the gut. Longitudinal contractions of the gut were recorded isotonically using a 2LD01 Devices transducer, a R2502-2 Devices optical wedge and a RE511.20 Smiths servoscribe flat bed recorder.
The tissue was constantly immersed in Tyrode solution washing was by fluid displacement from below. […]
The height of the response was measured in mms and a mean value calculated. […] The dose of histamine which produced a response of 100 mms were obtained for each curve from the graph and the ratio designated CR was calculated from [formula] […]

[2] = test system: rat passive peritoneal anaphylaxis; experiment: Rat passive peritoneal anaphylaxis (PPA): histamine, SRS-A and dye in peritoneal fluid; type: in vivo; conditions: mean ± SEM, 5-7 rats per group
Description: (a) inhibit rat passive peritoneal anaphylaxis; and
(a) Rat passive peritoneal anaphylaxis (PPA)
The method has been described previously (Ross, Janet W., Smith, H. and Spicer, Barbara A. Increased vascular permeability during passive peritoneal anaphylaxis in the rat, Int Arch Allergy appl Immun, 51, 226, 1976).
as §1
This was raised in rats in one of two ways.
Charles River Sprague Dawley male rats of 225 to 275 g were given subcutaneous injections of 10 μg of ovalbumin (chicken egg albumin; crystallised and lyophilised, grade 3, Sigma London), in 0.5 ml of a suspension prepared by adding 1 ml of a 0.1 mg/ml solution of ovalbumin, in isotonic saline, to 4 ml of a 1% suspension of aluminium hydroxide in saline (Alhydrogel; Miles Laboratories, England; diluted 1:1 with isotonic saline). The rats were bled on day 10.
Charles River Sprague Dawley male rats of 225 to 300 g were given intraperitoneal injections of 0.5 ml of Bordetella pertussis vaccine (4×10^10 organisms/ml Burroughs Wellcome, London) and subcutaneous injections of 0.5 ml of an emulsion of 100 mg of ovalbumin of 2 ml of isotonic saline and 3 ml of Freund's incomplete adjuvant (Pifco Laboratories, Michigan USA). The rats were bled on day 18.
The rats were bled by cardiac puncture, the blood was pooled, from groups of rats treated similarly, and the serum separated, stored at -20° and thawed only once before use. The serum sensitised rats for passive cutaneous anaphylaxis (carried out as described: Spicer, Barbara A; Ross, Janet W and Smith, H; Inhibition of immediate hypersensitivity reactions in the rat by disodium cromoglycate and a nitroindanedione, Clin exp, Immunol, 21, 419, 1975) to a dilution of 1:32 to 1:64 persisting for at least 72 hours after sensitisation.
Rats were given intraperitoneal injections of 2 ml of a 1:5 dilution of the rat anti-serum in isotonic saline. Two hours later 0.3 ml of a 5% solution of Pontamine Sky Blue (Raymond A. Lamb, London) in isotonic saline was injected intravenously, followed by an intraperitoneal injection of the test compound in 1 ml of saline; (control rats received 1 ml of saline); followed 30 seconds later by an intraperitoneal injection of 5 ml of a Tyrode solution containing 50 μg/ml heparin and 0.4 mg/ml of ovalbumin. The concentrations of the compounds were quoted as those in the 6 ml of fluid injected intraperitoneally. Exactly 5 minutes after challenge the rats were stunned and bled and their peritoneal fluids were collected by opening their peritoneal cavities over funnels into polycarbonate tubes in ice. The supernatants were separated from the cellular residue by centrifuging at 150 g for 5 minutes and any samples obviously contaminated with blood were discarded for estimattion of dye, histamine and SRS-A. Groups of at least 5 rats were used for each dose of compound and the treatments were randomised.
Collected peritoneal fluids were immediately cooled to 0° C. and centrifuged and the supernatant fluids assayed for dye within 2 hours. 0.5 ml samples of the supernatants were added to 1 ml of 12% trichloracetic acid and stored at -20° C. and used to assay for histamine. The remainders of the supernatant fluids were placed in a boiling water bath for 5 minutes and stored frozen at -20° C. until assayed for SRS-A.
The optical densities (OD) at 625 nm of the supernatants were determined. Samples were taken from supernatants with an OD greater than 2 and diluted in Tyrode's solution before reading.
Histamine was assayed using an automated spectrofluorimetric system (Technicon Autoanalyser) by a method similar to that of Evans, D.P., Lewis, J. A. and Thomson, D. S.; (An automated fluorimetric assay for the rapid determination of histamine in biological fluids. Life Sci 12,327, 1973). […]

pA2 values obtained in different assays [1]	Kb ([1]; read-out: pA2 values obtained in different assays (converted))	SMILES	Dye concentration in peritoneal fluid as % of mean of controls ([2]; 2 × 10^-5 M injected ip)	Histamine concentration in peritoneal fluid as % of mean of controls ([2]; 2 × 10^-5 M injected ip)	SRS-A concentration in peritoneal fluid as % of mean of controls ([2]; 2 × 10^-5 M injected ip)	Dye concentration in peritoneal fluid as % of mean of controls ([2]; 2 × 10^-6 M injected ip)	Histamine concentration in peritoneal fluid as % of mean of controls ([2]; 2 × 10^-6 M injected ip)	SRS-A concentration in peritoneal fluid as % of mean of controls ([2]; 2 × 10^-6 M injected ip)	Dye concentration in peritoneal fluid as % of mean of controls ([2]; 10^-5 M injected ip)	Histamine concentration in peritoneal fluid as % of mean of controls ([2]; 10^-5 M injected ip)	SRS-A concentration in peritoneal fluid as % of mean of controls ([2]; 10^-5 M injected ip)	Dye concentration in peritoneal fluid as % of mean of controls ([2]; 10^-6 M injected ip)	Histamine concentration in peritoneal fluid as % of mean of controls ([2]; 10^-6 M injected ip)	SRS-A concentration in peritoneal fluid as % of mean of controls ([2]; 10^-6 M injected ip)	Dye concentration in peritoneal fluid as % of mean of controls ([2]; 10^-7 M injected ip)	Histamine concentration in peritoneal fluid as % of mean of controls ([2]; 10^-7 M injected ip)	SRS-A concentration in peritoneal fluid as % of mean of controls ([2]; 10^-7 M injected ip)
9.1 and 9.0	–	O=C1c2cc(OCCCN3CCN(Cc4ccccc4Cl)CC3)ccc2C(=O)c2[nH]nnc21 [Example 3, 6-{3-[4-(2-Chlorobenzyl)-1-piperazinyl]propyloxy}-4,9-dihydro-4,9-dioxo-1H-naphtho[2,3-d]-v-triazole]	–	–	–	–	–	–	–	–	–	–	–	–	–	–	–
–	1 nM and 0.501 nM (2×) and 1.26 nM	O=C1c2cc(OCCCN3CCN(Cc4ccc(Cl)cc4)CC3)ccc2C(=O)c2[nH]nnc21 [Example 1, 6-{3-[4-(4-Chlorobenzyl)-1-piperazinyl]propyloxy}-4,9-dihydro-4,9-dioxo-1H-naphtho[2,3-d]-v-triazole]	29 ± 2 % of mean of controls	16 ± 2 % of mean of controls	75 ± 13 % of mean of controls	47 ± 6 % of mean of controls	23 ± 3 % of mean of controls	119 ± 25 % of mean of controls	38 ± 3 % of mean of controls	17 ± 3 % of mean of controls	39 ± 8 % of mean of controls	54 ± 6 % of mean of controls	27 ± 5 % of mean of controls	65 ± 18 % of mean of controls	75 ± 7 % of mean of controls	90 ± 16 % of mean of controls	109 ± 18 % of mean of controls
–	–	O=C1c2cccc(OCCCN3CCN(Cc4ccc(Cl)cc4)CC3)c2C(=O)c2nn[nH]c21 [Example 4, 5-{3-[4-(4-Chlorobenzyl)-1-piperazinyl]-propyloxy}-4,9-dihydro-4,9-dioxo-1H-naphtho-[2,3-d]-v-triazole]	–	–	–	–	–	–	43 ± 2 % of mean of controls	10 ± 1 % of mean of controls	–	60 ± 11 % of mean of controls	27 ± 4 % of mean of controls	–	85 ± 9 % of mean of controls	67 ± 8 % of mean of controls	–
